Measurements taken from patent US20260132140A1, “IMIDAZOLYL-AMINO-PYRAZINE-CARBONITRILS AS CHK-1 INHIBITORS” (BenevolentAI Bio Limited, priority 2022, published 2026).

Columns and labels:
[1] = target: human Chk2 kinase (Homo sapiens, UniProt O96017); experiment: biochemical
[2] = target: T1, human Chk1 kinase (Homo sapiens, UniProt O14757); experiment: biochemical
T1 sequence (O14757 1-476): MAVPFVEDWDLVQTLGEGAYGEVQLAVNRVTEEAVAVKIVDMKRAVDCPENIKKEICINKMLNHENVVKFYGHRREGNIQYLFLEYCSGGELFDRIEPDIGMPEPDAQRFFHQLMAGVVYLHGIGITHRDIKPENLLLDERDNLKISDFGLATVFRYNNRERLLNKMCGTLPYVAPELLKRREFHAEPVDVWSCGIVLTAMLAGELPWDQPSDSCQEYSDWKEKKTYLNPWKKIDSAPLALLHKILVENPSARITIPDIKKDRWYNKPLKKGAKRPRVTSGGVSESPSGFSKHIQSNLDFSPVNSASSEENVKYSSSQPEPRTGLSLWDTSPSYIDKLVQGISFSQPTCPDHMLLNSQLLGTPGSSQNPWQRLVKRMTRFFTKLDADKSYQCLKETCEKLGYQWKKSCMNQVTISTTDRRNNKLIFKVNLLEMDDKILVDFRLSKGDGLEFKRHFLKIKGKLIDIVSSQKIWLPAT

human Chk2 kinase, sequence (O96017 whole entry): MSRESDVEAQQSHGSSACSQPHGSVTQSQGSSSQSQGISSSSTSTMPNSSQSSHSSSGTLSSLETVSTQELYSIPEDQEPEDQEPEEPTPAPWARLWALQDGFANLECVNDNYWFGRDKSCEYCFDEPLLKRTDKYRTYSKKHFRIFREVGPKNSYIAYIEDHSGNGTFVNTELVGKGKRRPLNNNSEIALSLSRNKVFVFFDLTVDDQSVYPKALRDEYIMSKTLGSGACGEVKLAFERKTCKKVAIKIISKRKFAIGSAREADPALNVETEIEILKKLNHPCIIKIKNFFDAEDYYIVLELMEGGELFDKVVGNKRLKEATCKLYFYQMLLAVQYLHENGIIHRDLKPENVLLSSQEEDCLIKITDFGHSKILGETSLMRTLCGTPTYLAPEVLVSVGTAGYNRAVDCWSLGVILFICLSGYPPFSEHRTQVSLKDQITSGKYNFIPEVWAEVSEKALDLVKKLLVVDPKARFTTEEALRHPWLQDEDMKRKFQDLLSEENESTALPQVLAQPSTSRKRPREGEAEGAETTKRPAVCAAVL

| SMILES | IC50 [1] [nM] | IC50 [2] [nM] |
| --- | --- | --- |
| CN1CCCN(c2ccc(-n3cnc(Nc4cnc(C#N)cn4)c3)cn2)CC1 [Example 20, 5-((1-(6-(4-methyl-1,4-Diazepan-1-yl)pyridin-3-yl)-1H-imidazol-4-yl)amino)pyrazine-2-carbonitrile] | 10000 to 100000 | 100 to 316 |
| COc1cc(N(C)CC2CCN(C)CC2)ccc1-n1cnc(Nc2cnc(C#N)cn2)c1 [Example 36, 5-((1-(2-Methoxy-4-(methyl((1-methylpiperidin-4-yl)methyl)amino)phenyl)-1H-imidazol-4-yl)amino)pyrazine-2-carbonitrile] | 10000 to 100000 | 31.6 to 100 |
| CC1CN(C2CCN(c3ccc(-n4cnc(Nc5cnc(C#N)cn5)c4)cc3)C2)C1 (single isomer, unassigned) [Example 125, 5-((1-(4-(3-(3-Methylazetidin-1-yl)pyrrolidin-1-yl)phenyl)-1H-imidazol-4-yl)amino)pyrazine-2-carbonitrile] | 1000 to 10000 | 10 to 31.6 |
| N#Cc1cnc(Nc2cn(-c3cccc(N4C[C@@H](N)[C@@H](F)C4)c3)cn2)cn1 [Example 151, 5-((1-(3-((3R,4S)-3-Amino-4-fluoropyrrolidin-1-yl)phenyl)-1H-imidazol-4-yl)amino)pyrazine-2-carbonitrile] | 10000 to 100000 | 31.6 to 100 |
| N#Cc1cnc(Nc2cn(-c3ccc(N4CCC(N5CC(F)C5)C4)cc3)cn2)cn1 (single isomer, unassigned) [Example 129, 5-((1-(4-(3-(3-Fluoroazetidin-1-yl)pyrrolidin-1-yl)phenyl)-1H-imidazol-4-yl)amino)pyrazine-2-carbonitrile] | > 100000 | 31.6 to 100 |
| N#Cc1cnc(Nc2cn(-c3ccc(N4CC5(CCN5)C4)cc3)cn2)cn1 [Example 160, 5-((1-(4-(1,6-Diazaspiro[3.3]heptan-6-yl)phenyl)-1H-imidazol-4-yl)amino)pyrazine-2-carbonitrile] | 1000 to 10000 | 10 to 31.6 |
| Cc1cc(-n2cnc(Nc3cnc(C#N)cn3)c2)ccc1N1CC[C@@H](N2CCC2)C1 [Example 104, (R)-5-((1-(4-(3-(Azetidin-1-yl)pyrrolidin-1-yl)-3-methylphenyl)-1H-imidazol-4-yl)amino)pyrazine-2-carbonitrile] | 10000 to 100000 | 10 to 31.6 |
| CN1CC[C@H](N(C)c2ccc(-n3cnc(Nc4cnc(C#N)cn4)c3)cc2)C1 [Example 95, (S)-5-((1-(4-(Methyl(1-methylpyrrolidin-3-yl)amino)phenyl)-1H-imidazol-4-yl)amino)pyrazine-2-carbonitrile] | 10000 to 100000 | 31.6 to 100 |
| CN1CCC12CCN(c1ccc(-n3cnc(Nc4cnc(C#N)cn4)c3)cc1)CC2 [Example 100, 5-((1-(4-(1-Methyl-1,7-diazaspiro[3.5]nonan-7-yl)phenyl)-1H-imidazol-4-yl)amino)pyrazine-2-carbonitrile] | 10000 to 100000 | 10 to 31.6 |
| CN(C)[C@@H]1CCN(c2ccc(-n3cnc(Nc4cnc(C#N)cn4)c3)nc2C(F)(F)F)C1 [Example 77, (R)-5-((1-(5-(3-(Dimethylamino)pyrrolidin-1-yl)-6-(trifluoromethyl)pyridin-2-yl)-1H-imidazol-4-yl)amino)pyrazine-2-carbonitrile] | 10000 to 100000 | 10 to 31.6 |
| CN1C[C@@H]2C[C@H]1CN2c1ccc(-n2cnc(Nc3cnc(C#N)cn3)c2)cc1 [Example 10, 5-((1-(4-((1S,4S)-5-Methyl-2,5-diazabicyclo[2.2.1]heptan-2-yl)phenyl)-1H-imidazol-4-yl)amino)pyrazine-2-carbonitrile] | 10000 to 100000 | 10 to 31.6 |
| CN1CCC12CCN(c1ccc(-n3cnc(Nc4cnc(C#N)cn4)c3)cc1)C2 (single isomer, unassigned) [Example 127, 5-((1-(4-(1-Methyl-1,6-diazaspiro[3.4]octan-6-yl)phenyl)-1H-imidazol-4-yl)amino)pyrazine-2-carbonitrile] | > 100000 | 10 to 31.6 |
